Data set [1] relates to live bait worms. Briefly: Coloring and viability of live bait worms kept in peat loam medium mixed with colorant (8 oz cup, 12 worms). It is filed as in vivo. To be noted: for Effectiveness as worm coloring agent (coloration of worms) / Worm viability / mortality: powdered colorant in peat loam, 8 oz cup, inspected at 24 hrs, 36 hrs, 3-4 weeks. The text has this:
The inventor conducted numerous experiments to determine the effectiveness of a number of color additives to color live bait worms.
Experimental procedure. Each powdered colorant was mixed with peat loam medium and added to an 8 oz cup containing 12 healthy and natural worms. Concentrations given as mg colorant per 8 oz cup containing about 120 g peat loam. Worms were inspected for color and viability 24 hrs., 36 hrs., and when still viable, 3-4 weeks later.

Data set [2] in a line: Solubility of colorant in water. As to conditions: at 25° C.
The test system of data set [3] is live bait worms. As to the kind of experiment: Incubation and storage of worms in bait cup topped with coloring medium. To be noted: 8-24 worms, 8 to 12 ounce cup, coloring medium 5 g colorant per kg, stored at 34° F. to 38° F. It is filed as in vivo. The method, then:
Alternatively, after the incubation, the above bulk colored worms can be divided into smaller amounts and stored in actual point-of-sale containers ready for use as bait by the end user rather than in bulk containers. For example, 8-24 of the worms previously colored in bulk as described above can be added to a normal 8 to 12 ounce Styrofoam, paper, or plastic bait cup and topped with the coloring medium (containing 5 g colorant D&C Yellow 8 per kg of the storage medium). When the container is capped with a lid and stored at 34° F. to 38° F., the worms will remain viable, and colored for about four to six weeks and are ready for immediate use as bait.
In another application of the process, the incubation and storage can be carried out in the same vessel. […]. In this case, the regular, uncolored, worms require an initial incubation period of about one week to lapsed before the worms acquire the desired color and intensity to be used as colored bait worms. The worms will then remain colored and viable in the bait cup of about four to six weeks. In both examples, the worms can be kept viable and colored indefinitely, if required, simply by changing the coloring medium once it has been consumed.

Setting [4] is: mg colorant per 8 oz cup containing about 120 g peat loam, 12 worms.
Setting [5] is: 12 worms, listed as D&C Yellow No. 8.

Consider seven compounds from US20010013317A1, “Medium for coloring live bait worms” (priority 1999, published 2001).

≈ marks a conversion by molar mass, not a printed value. Entries after “also recorded” stand apart in the source; their conditions may differ. A value given as a limit tells only on which side of the number the result lay.

On to `O=C(O)c1nn(-c2ccc(S(=O)(=O)O)cc2)c(O)c1N=Nc1ccc(S(=O)(=O)O)cc1` [FD & C Yellow 5], for which, in data set [1] (12 worms), the “Effectiveness as worm coloring agent (coloration of worms)” value (from here on “Effectiveness as worm coloring agent”) is recorded as “Color not retained” and the “Worm viability / mortality” value was “Worms remain viable”. This compound displayed a Solubility in water in data set [2] of 20 mg/mL (≈ 42.7 mM).

Turning to `O=C([O-])c1c(Cl)c(Cl)c(Cl)c(Cl)c1-c1c2cc(Br)c(=O)c(Br)c-2oc2c(Br)c([O-])c(Br)cc12.[Na+].[Na+]` [D & C Red 28], the “Concentration range in which worms become colored” value in data set [1] (setting [4]) is given as “tration between 50-800 mg”. In addition, in data set [1] (12 worms), the “Effectiveness as worm coloring agent” value was “Worms become pinkish” and the “Worm viability / mortality” value is “mg. Increased mortality”.

For the compound `O=C1OC2(c3ccc([O-])cc3Oc3cc([O-])ccc32)c2ccccc21.[Na+].[Na+]` [D & C Yellow 8, uranine], the “Amount at which dye remains non-toxic to worms” value in data set [1] (bait cup containing 12 worms) is reported as “about 2500 mg/8 ounce bait cup”. Also, the “Amount at which dye remains non-toxic, per worm” value in data set [1] (from 2500 mg/8 ounce cup with 12 worms) was “about 150 mg dye per worm”. Also, in data set [1] (setting [4]), the “Concentration at which worms remain very healthy and viable” value is reported as “centration of >2500 mg”; the “Lowest concentration at which worms become and remain colored” value is at most 25 mg. Preferred range. Further, in data set [1] (12 worms), the “Effectiveness as worm coloring agent” value is recorded as “main bright Chartreuse”; the “Worm viability / mortality” value was “very healthy and viable”. Also, in data set [1] (setting [5]), the “Effectiveness as worm coloring agent” value was “intense fluorescent chartreuse color” and the “Worm viability / mortality” value is “non-toxic to worms; also recorded: not detrimental to the viability of the worms”. Also, the “Time worms remain viable and colored in bait cup” value in data set [3] is given as “about four to six”.

Regarding `O=C1/C(=C2\Nc3ccc(S(=O)(=O)[O-])cc3C2=O)Nc2ccc(S(=O)(=O)[O-])cc21.[Na+].[Na+]` [FD & C Blue 2], in data set [1] (12 worms), the “Effectiveness as worm coloring agent” value is recorded as “No colorization. Worms” and the “Worm viability / mortality” value was “remain viable”. This compound displayed a Solubility in water in data set [2] of 2 mg/mL.

As for `CCN(Cc1cccc(S(=O)(=O)[O-])c1)c1ccc(C(=C2C=CC(=[N+](CC)Cc3cccc(S(=O)(=O)[O-])c3)C=C2)c2ccccc2S(=O)(=O)[O-])cc1.[Na+].[Na+]` [FD & C Blue 1], in data set [1] (12 worms), the “Effectiveness as worm coloring agent” value is recorded as “main blue. Worms” and the “Worm viability / mortality” value is “viable if carefully”.

For the compound `O=S(=O)([O-])c1ccc(N=Nc2c(O)ccc3cc(S(=O)(=O)[O-])ccc23)cc1.[Na+].[Na+]` [FD & C Yellow 6], in data set [1] (12 worms), the “Effectiveness as worm coloring agent” value is “No coloration. Worms” and the “Worm viability / mortality” value is on record as “remain viable”.

Turning to `COc1cc(S(=O)(=O)[O-])c(C)cc1N=Nc1c(O)ccc2cc(S(=O)(=O)[O-])ccc12.[Na+].[Na+]` [FD & C Red 40], in data set [1] (12 worms), the “Effectiveness as worm coloring agent” value is listed as “No coloration. Worms” and the “Worm viability / mortality” value is recorded as “remain viable”. The same compound gave a Solubility in water in data set [2] of 22 mg/mL.
